{
  "source": "ChEMBL document CHEMBL5365457",
  "about": "“Selective HDAC3 Inhibitors with Potent In Vivo Antitumor Efficacy against Triple-Negative Breast Cancer” (J Med Chem, 2023)",
  "key": {"[1]": {"assay": "Half life in Wistar rat at 15 mg/kg, ip measured upto 24 hrs by HPLC analysis", "format": "ADME, organism-based", "settings": "in vivo"}, "[2]": {"assay": "AUC (0 to infinity) in Wistar rat at 15 mg/kg, ip measured upto 24 hrs by HPLC analysis", "format": "ADME, organism-based", "parameters": "dose 15 mg/kg, time < 24 hrs, route ip", "settings": "in vivo"}, "[3]": {"assay": "MRT (0 to infinity) in Wistar rat at 15 mg/kg, ip measured upto 24 hrs by HPLC analysis", "format": "ADME, organism-based", "settings": "in vivo"}, "[4]": {"assay": "Apparent volume of distribution in Wistar rat at 15 mg/kg, ip measured upto 24 hrs by HPLC analysis", "format": "ADME, organism-based", "settings": "in vivo"}, "[5]": {"assay": "AUMC (0 to infinity) in Wistar rat at 5 mg/kg, ip measured upto 24 hrs by HPLC analysis", "format": "ADME, organism-based", "settings": "in vivo"}, "Histone deacetylase 2": {"molecular_target": "Histone deacetylase 2 (Homo sapiens, UniProt Q92769)", "sequence (Q92769 whole entry)": "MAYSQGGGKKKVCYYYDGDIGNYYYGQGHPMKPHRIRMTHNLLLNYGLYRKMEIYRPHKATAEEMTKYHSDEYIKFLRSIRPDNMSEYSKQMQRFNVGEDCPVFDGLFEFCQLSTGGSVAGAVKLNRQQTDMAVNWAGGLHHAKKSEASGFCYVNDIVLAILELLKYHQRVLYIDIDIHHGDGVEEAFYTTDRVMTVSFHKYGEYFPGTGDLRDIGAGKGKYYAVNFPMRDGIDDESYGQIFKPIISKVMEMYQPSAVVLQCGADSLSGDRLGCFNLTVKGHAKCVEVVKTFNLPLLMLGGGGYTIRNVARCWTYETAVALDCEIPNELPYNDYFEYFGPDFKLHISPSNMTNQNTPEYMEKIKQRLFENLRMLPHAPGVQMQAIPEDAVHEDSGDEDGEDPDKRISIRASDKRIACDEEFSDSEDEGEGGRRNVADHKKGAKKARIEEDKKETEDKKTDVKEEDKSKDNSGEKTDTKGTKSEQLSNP", "assay": "Inhibition of human recombinant HDAC2 incubated for 30 mins by fluorescence based microplate analysis"}, "Histone deacetylase 8": {"molecular_target": "T1, Histone deacetylase 8 (Homo sapiens, UniProt Q9BY41)", "T1 sequence (Q9BY41 whole entry)": "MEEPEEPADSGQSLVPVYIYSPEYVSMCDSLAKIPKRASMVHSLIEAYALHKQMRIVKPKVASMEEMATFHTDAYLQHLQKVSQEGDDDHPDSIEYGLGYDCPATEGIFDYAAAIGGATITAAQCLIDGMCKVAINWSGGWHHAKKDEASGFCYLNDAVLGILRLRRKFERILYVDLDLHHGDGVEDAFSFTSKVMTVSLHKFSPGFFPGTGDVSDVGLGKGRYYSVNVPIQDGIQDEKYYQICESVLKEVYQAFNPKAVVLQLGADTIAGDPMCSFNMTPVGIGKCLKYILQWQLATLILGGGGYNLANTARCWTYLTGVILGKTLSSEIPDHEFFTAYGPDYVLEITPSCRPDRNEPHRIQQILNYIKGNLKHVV", "assay": "Inhibition of human recombinant HDAC8 incubated for 15 mins by fluorescence based microplate analysis"}, "Histone deacetylase 4": {"molecular_target": "Histone deacetylase 4 (Homo sapiens, UniProt P56524)", "sequence (P56524 whole entry)": "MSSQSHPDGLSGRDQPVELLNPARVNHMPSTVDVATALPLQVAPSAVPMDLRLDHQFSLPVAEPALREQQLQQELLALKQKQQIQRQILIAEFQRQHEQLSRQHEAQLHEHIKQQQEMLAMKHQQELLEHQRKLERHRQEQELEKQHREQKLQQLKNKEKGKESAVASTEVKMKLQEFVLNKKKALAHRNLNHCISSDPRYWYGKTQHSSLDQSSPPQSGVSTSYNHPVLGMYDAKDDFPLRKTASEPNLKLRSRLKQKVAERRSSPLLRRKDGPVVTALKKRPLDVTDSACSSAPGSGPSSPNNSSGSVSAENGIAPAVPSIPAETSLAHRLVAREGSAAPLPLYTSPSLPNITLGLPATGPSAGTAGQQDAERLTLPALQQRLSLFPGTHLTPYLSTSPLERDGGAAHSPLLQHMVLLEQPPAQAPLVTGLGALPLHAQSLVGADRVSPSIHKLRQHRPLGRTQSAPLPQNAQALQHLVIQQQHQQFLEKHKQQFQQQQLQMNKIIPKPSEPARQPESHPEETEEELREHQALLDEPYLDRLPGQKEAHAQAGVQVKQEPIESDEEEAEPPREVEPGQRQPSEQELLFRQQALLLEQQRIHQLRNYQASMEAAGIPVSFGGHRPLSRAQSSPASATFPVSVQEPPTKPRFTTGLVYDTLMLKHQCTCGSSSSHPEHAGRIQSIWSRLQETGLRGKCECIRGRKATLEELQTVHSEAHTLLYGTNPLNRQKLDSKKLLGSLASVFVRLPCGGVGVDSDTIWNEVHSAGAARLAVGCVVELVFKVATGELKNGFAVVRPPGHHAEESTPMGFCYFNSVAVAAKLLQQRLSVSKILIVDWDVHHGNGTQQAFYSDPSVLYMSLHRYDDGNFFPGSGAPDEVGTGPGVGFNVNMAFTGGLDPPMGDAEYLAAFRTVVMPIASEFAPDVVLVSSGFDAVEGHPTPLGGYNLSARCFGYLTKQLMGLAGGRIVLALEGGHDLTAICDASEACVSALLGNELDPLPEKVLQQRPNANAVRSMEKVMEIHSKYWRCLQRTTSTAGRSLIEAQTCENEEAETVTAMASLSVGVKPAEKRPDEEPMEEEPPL", "assay": "Inhibition of HDAC4 (unknown origin) incubated for 30 mins by fluorescence based microplate analysis"}, "[6]": {"assay": "Selectivity ratio of IC50 for cytotoxicity against human MCF-10A cells assessed as inhibition of cell growth to IC50 for cytotoxicity against […] cells assessed as inhibition of cell growth", "format": "toxicity, cell-based", "settings": "MCF-10A cells versus 4T1 cells, read-out: Ratio IC50"}, "[7]": {"assay": "Selectivity ratio of IC50 for cytotoxicity against human HEK293 cells assessed as inhibition of cell growth to IC50 for cytotoxicity against mouse 4T1 cells assessed as inhibition of cell growth", "format": "toxicity, cell-based", "settings": "HEK293 cells versus 4T1 cells, read-out: Ratio IC50"}, "4T1 [8]": {"system": "4T1", "assay": "Induction of apoptosis in mouse 4T1 cells at 2.75 uM incubated for 72 hrs by annexin/PI staining based flow cytometry analysis (reference value: 1.35%)", "format": "functional"}, "4T1 [9]": {"system": "4T1", "assay": "Induction of apoptosis in mouse 4T1 cells at 38.6 uM incubated for 72 hrs by annexin/PI staining based flow cytometry analysis (reference value: 1.35%)", "format": "functional"}, "4T1 [10]": {"system": "4T1", "assay": "Cell cycle arrest in mouse 4T1 cells assessed as accumulation of cells at G2/M phase at 110 nM incubated for 72 hrs by flow cytometry", "format": "functional"}, "4T1 [11]": {"system": "4T1", "assay": "Cell cycle arrest in mouse 4T1 cells assessed as accumulation of cells at G2/M phase at 2.75 uM incubated for 72 hrs by flow cytometry", "format": "functional"}, "MDA-MB-231": {"system": "MDA-MB-231", "assay": "Cytotoxicity against wild type human MDA-MB-231 cells assessed as reduction in cell viability incubated for 72 hrs by MTT assay", "format": "functional, cell-based", "settings": "MDA-MB-231, 72 h"}, "[12]": {"assay": "Metabolic stability in rat liver microsome assessed as half life preincubated for 5 mins followed by NADPH addition and measured after 60 mins by HPLC analysis", "format": "ADME", "settings": "liver microsomes, time 65 min"}, "4T1 [13]": {"system": "4T1", "assay": "Antitumor activity against mouse 4T1 cells implanted in BALB/c mouse assessed as tumor growth inhibition at 5 mg/kg, ip measured on day 14", "format": "functional", "settings": "4T1, 336 h, time 14 day, read-out: TGI"}, "4T1 [14]": {"system": "4T1", "assay": "Antitumor activity against mouse 4T1 cells implanted in BALB/c mouse assessed as tumor growth inhibition at 5 mg/kg, ip measured on day 21", "format": "functional", "settings": "4T1, 504 h, time 21 day, read-out: TGI"}, "4T1 [15]": {"system": "4T1", "assay": "Antitumor activity against mouse 4T1 cells implanted in BALB/c mouse assessed as tumor growth inhibition at 15 mg/kg, ip measured on day 7", "format": "functional", "settings": "4T1, 168 h, time 7 day, read-out: TGI"}, "[16]": {"assay": "Toxicity in BALB/c mouse implanted with mouse 4T1 cells assessed as liver damage at 5 to 15 mg/kg, ip measured after 21 days by H and E staining based assay", "format": "organism-based", "settings": "in vivo, 504 h, dose 5-15 mg/kg, time 21 day"}, "[17]": {"assay": "Toxicity in BALB/c mouse implanted with mouse 4T1 cells assessed as kidney damage at 5 to 15 mg/kg, ip measured after 21 days by H and E staining based assay", "format": "organism-based", "settings": "in vivo, 504 h, dose 5-15 mg/kg, time 21 day"}, "[18]": {"assay": "Toxicity in BALB/c mouse implanted with mouse 4T1 cells assessed as effect on cell shape in heart at 5 to 15 mg/kg, ip measured after 21 days by H and E staining based assay", "format": "organism-based", "settings": "in vivo, 504 h, dose 5-15 mg/kg, time 21 day"}, "[19]": {"assay": "Toxicity in BALB/c mouse implanted with mouse 4T1 cells assessed as effect on cell shape in kidney at 5 to 15 mg/kg, ip measured after 21 days by H and E staining based assay", "format": "organism-based", "settings": "in vivo, 504 h, dose 5-15 mg/kg, time 21 day"}, "[20]": {"assay": "Toxicity in BALB/c mouse implanted with mouse 4T1 cells assessed as effect on cell size in heart at 5 to 15 mg/kg, ip measured after 21 days by H and E staining based assay", "format": "organism-based", "settings": "in vivo, 504 h, dose 5-15 mg/kg, time 21 day"}, "[21]": {"assay": "Toxicity in BALB/c mouse implanted with mouse 4T1 cells assessed as effect on cell size in liver at 5 to 15 mg/kg, ip measured after 21 days by H and E staining based assay", "format": "organism-based", "settings": "in vivo, 504 h, dose 5-15 mg/kg, time 21 day"}, "[22]": {"assay": "Toxicity in BALB/c mouse implanted with mouse 4T1 cells assessed as liver fibrosis at 5 to 15 mg/kg, ip measured after 21 days", "format": "organism-based", "settings": "in vivo, 504 h, dose 5-15 mg/kg, time 21 day"}, "[23]": {"assay": "Toxicity in BALB/c mouse implanted with mouse 4T1 cells assessed as spleen fibrosis at 5 to 15 mg/kg, ip measured after 21 days", "format": "organism-based", "settings": "in vivo, 504 h, dose 5-15 mg/kg, time 21 day"}, "4T1 [24]": {"system": "4T1", "assay": "Antitumor activity against mouse 4T1 cells implanted in BALB/c mouse assessed as increase in number of lung nodules at 15 mg/kg, ip measured for 7 days by fluorescence based assay", "format": "functional, organism-based", "settings": "time 7.0 day"}, "4T1 [25]": {"system": "4T1", "assay": "In-vivo inhibition of HDAC3 in BALB/c mouse implanted with mouse 4T1 cells assessed as increase in acetylation of tubulin level at 5 to 15 mg/kg, ip by Western blot analysis", "format": "functional, organism-based", "settings": "dose 5-15 mg/kg"}, "4T1 [26]": {"system": "4T1", "assay": "Antitumor activity against mouse 4T1 cells implanted in BALB/c mouse assessed as upregulation of caspase-7 level in tumor at 5 to 15 mg/kg, ip by Western blot analysis", "format": "functional, organism-based", "settings": "dose 5-15 mg/kg"}, "4T1 [27]": {"system": "4T1", "assay": "Antitumor activity against mouse 4T1 cells implanted in BALB/c mouse assessed as downregulation of Bcl-2 level in tumor at 5 to 15 mg/kg, ip by Western blot analysis", "format": "functional, organism-based", "settings": "dose 5-15 mg/kg"}, "4T1 [28]": {"system": "4T1", "assay": "Antitumor activity against mouse 4T1 cells implanted in BALB/c mouse assessed as reduction in Ki-67 protein level in tumor at 5 to 15 mg/kg, ip by Western blot analysis", "format": "functional, organism-based", "settings": "dose 5-15 mg/kg"}},
  "note": "Activity calls are given as the source filed them. No cut-off for these calls is given here.",
  "data": [
    {"compound": "CCCNNC(=O)c1cnc(NCc2ccc(OC)cc2)cn1", "values": [
      {"measurement": "half-life", "setting": "[1]", "result": 432, "unit": "min"},
      {"measurement": "AUC(0-inf)", "setting": "[2]", "result": 20600, "unit": "ng·h/mL"},
      {"measurement": "MRT inf", "setting": "[3]", "result": 6.57, "unit": "h"},
      {"measurement": "Vz/F", "setting": "[4]", "result": "12.57 (mg/kg)/(ug/ml)"},
      {"measurement": "AUMC", "setting": "[5]", "result": 29.08, "unit": "ug/ml.hr^2"},
      {"measurement": "IC50", "setting": "Histone deacetylase 2", "result": 1700, "unit": "nM"},
      {"measurement": "IC50", "setting": "Histone deacetylase 8", "result": 10.7, "unit": "µM"},
      {"measurement": "IC50", "setting": "Histone deacetylase 4", "result": "> 20", "unit": "µM"},
      {"measurement": "selectivity ratio", "setting": "[6]", "result": 385},
      {"measurement": "selectivity ratio", "setting": "[7]", "result": 286},
      {"measurement": "Activity", "setting": "4T1 [8]", "result": 94.6, "unit": "%"},
      {"measurement": "Activity", "setting": "4T1 [9]", "result": 82.7, "unit": "%"},
      {"measurement": "Activity", "setting": "4T1 [10]", "result": 38.8, "unit": "%"},
      {"measurement": "Activity", "setting": "4T1 [11]", "result": 63.4, "unit": "%"},
      {"measurement": "IC50", "setting": "MDA-MB-231", "result": 743, "unit": "nM"},
      {"measurement": "half-life", "setting": "[12]", "result": 38.3, "unit": "min"},
      {"measurement": "inhibition in vivo at 5 mg/kg", "setting": "4T1 [13]", "result": 91.2, "unit": "%"},
      {"measurement": "inhibition in vivo at 5 mg/kg", "setting": "4T1 [14]", "result": 92.9, "unit": "%"},
      {"measurement": "inhibition in vivo at 15 mg/kg", "setting": "4T1 [15]", "result": 84.9, "unit": "%"},
      {"measurement": "Activity", "setting": "[16]", "result": "Non-Toxic"},
      {"measurement": "Activity", "setting": "[17]", "result": "Non-Toxic"},
      {"measurement": "Activity", "setting": "[18]", "result": "Non-Toxic"},
      {"measurement": "Activity", "setting": "[19]", "result": "Non-Toxic"},
      {"measurement": "Activity", "setting": "[20]", "result": "Non-Toxic"},
      {"measurement": "Activity", "setting": "[21]", "result": "Non-Toxic"},
      {"measurement": "Activity", "setting": "[22]", "result": "Non-Toxic"},
      {"measurement": "Activity", "setting": "[23]", "result": "Non-Toxic"},
      {"measurement": "Activity", "setting": "4T1 [24]", "result": "Active"},
      {"measurement": "inhibition", "setting": "4T1 [25]", "result": "Active"},
      {"measurement": "Activity", "setting": "4T1 [26]", "result": "Active"},
      {"measurement": "Activity", "setting": "4T1 [27]", "result": "Active"},
      {"measurement": "Activity", "setting": "4T1 [28]", "result": "Active"}
    ]}
  ]
}
